One test concerns mice. Conditions: intracerebroventricular (ICV), orexin-neuron ablated mice; cited from earlier work.
Test [1] deals with T1, human orexin type 1 receptor (hOX1R) (Homo sapiens, UniProt O43613).
T1 construct: expressed in transfected cells
T1 sequence (O43613 1-425): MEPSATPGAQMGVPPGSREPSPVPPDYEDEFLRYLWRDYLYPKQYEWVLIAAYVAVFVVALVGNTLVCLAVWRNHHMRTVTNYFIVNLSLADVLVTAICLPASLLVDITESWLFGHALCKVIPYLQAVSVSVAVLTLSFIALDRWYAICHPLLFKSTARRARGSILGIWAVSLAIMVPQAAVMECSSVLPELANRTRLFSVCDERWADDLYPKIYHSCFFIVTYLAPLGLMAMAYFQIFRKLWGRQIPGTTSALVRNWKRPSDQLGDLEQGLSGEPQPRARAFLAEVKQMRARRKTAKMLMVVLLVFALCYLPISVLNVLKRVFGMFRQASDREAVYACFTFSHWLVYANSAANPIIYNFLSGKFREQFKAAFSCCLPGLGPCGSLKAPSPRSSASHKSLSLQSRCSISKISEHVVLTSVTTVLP
Description: Measurement of orexin type 1 receptor agonist activity (CHO cells, FLIPR TETRA intracellular Ca2+). The class given is cell-based. The text has this: (§1) In some embodiments, the assay uses cells stably expressing either human orexin type 2 or human orexin type 1 receptor. In some embodiments, the cells are obtained by inserting the Orexin receptor cDNA into pcDNA3.1(+) plasmid vector, identifying clones by G418 drug resistance selection, and/or growing a single clone for OX2R-CHO and OX1R-CHO in bulk. In some embodiments, the assay is detected using Fluorescent Imaging Plate Reader TETRA (FLIPR TETRA: manufactured by Molecular Devices). In some embodiments, the agonist activity of the test peptide is calculated assuming that the fluorescence value of the well containing only the dilution buffer is 0% and the fluorescence value of the well containing 10 nM human orexin A (Tocris) buffer is 100%.
(§2) Stable cell line generation. Obtainment of cells stably expressing either human orexin type 2 or human orexin type 1 receptor: to obtain a stable cell line the Orexin receptor cDNA was inserted into pcDNA3.1(+) plasmid vector and clones identified by G418 drug resistance selection. […] A single clone for OX2R-CHO and OX1R-CHO were grown in bulk and frozen to generate a cell bank for routine screening.
(§3) Measurement of orexin type 1 receptor agonist activity. Chinese hamster ovary (CHO) cells expressing human orexin type 1 receptor (hOX1R) were seeded in each well of 384 well black clear bottom plates (BD Flacon) at 10,000 cells per well and cultured for 24 h in an Ham's F12 (Gibco) medium containing 10% fetal calf serum (Sigma Aldrich) under the conditions of 37° C., 5% CO2. After removal of the medium, 50 μL of assay buffer 1 (0.1% bovine serum albumin (Sigma Aldrich), 20 mM HEPES (Molecular Dimensions), […] probenecid (Sigma Aldrich), 1× Calcium 5 dye (Molecular Devices) in Hank's balanced salt solution (Invitrogen)) was added, and the cells were incubated for 60 min under the conditions of 37° C., 5% CO2. A test peptide was dissolved in dimethyl sulfoxide (Sigma Aldrich) to 1 mM, and then diluted with assay buffer 2 (20 mM HEPES, Hank's balanced salt solution, 0.1% bovine serum albumin). For the reaction, a test peptide solution (10 μl) was added using Fluorescent Imaging Plate Reader TETRA (FLIPR TETRA: manufactured by Molecular Devices), a fluorescence value (excitation wavelength 488 nm, measurement wavelength 570 nm) of each well was measured every one second for 2 min, and the agonist activity was determined using the area of the fluorescence value as an indicator of intracellular Ca^2+ concentration. The agonist activity of the test peptide was calculated assuming that the fluorescence value of the well added with only the dilution buffer was 0% and the fluorescence value of the well added with 10 nM human orexin A (Tocris) buffer was 100%. As used herein, Emax indicates the value at 1 μM concentration when orexin A is converted to a full agonist (maximum value of agonist activity: 100%).

For test [2], the target named is T2, human orexin type 2 receptor (hOX2R) (Homo sapiens, UniProt O43614).
T2 construct: expressed in transfected cells
T2 sequence (O43614 1-444): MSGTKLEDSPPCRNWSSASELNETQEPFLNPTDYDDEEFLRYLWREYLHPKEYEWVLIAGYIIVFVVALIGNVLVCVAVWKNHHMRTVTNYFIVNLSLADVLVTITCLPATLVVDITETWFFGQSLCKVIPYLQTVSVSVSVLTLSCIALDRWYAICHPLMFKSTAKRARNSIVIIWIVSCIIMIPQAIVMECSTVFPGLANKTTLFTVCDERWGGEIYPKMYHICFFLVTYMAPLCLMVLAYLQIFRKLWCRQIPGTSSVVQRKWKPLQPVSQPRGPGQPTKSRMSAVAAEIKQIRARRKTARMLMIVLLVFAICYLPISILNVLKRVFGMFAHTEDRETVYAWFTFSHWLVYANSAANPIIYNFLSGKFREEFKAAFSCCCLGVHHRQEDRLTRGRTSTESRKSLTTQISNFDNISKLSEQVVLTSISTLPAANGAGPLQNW
Description: Measurement of orexin type 2 receptor agonist activity (CHO cells, FLIPR TETRA intracellular Ca2+). The format is cell-based.
Description: as §1, §2
as §3, with “type 2” for “type 1”, “receptor (hOX2R)” for “receptor (hOX1R) were”

Where [3] appears, read: CHO cells expressing hOX1R, Ca2+ fluorescence, read-out: hOX1 pEC50 (converted).
Setting [4] is: CHO cells expressing hOX2R, Ca2+ fluorescence, read-out: hOX2 pEC50 (converted).

Where two headings read alike, the source gives them in different places. Where a SMILES comes first, the peptide text is derived from it. Where no end group is shown, it is not given here. [ ]: non-standard residue; d: D form. The star is where a group is joined. Malonyl(2,2-Me2,histaminyl) = CC(C)(C(=O)NCCc1cnc[nH]1)C(=O)*; Gly(NCH2CH2Ph) = O=C(O)CNCCc1ccccc1; Hyp = O=C(O)[C@@H]1C[C@@H](O)CN1; hArg = N=C(N)NCCCC[C@H](N)C(=O)O; NMeN = CN[C@@H](CC(N)=O)C(=O)O; Aoc(2) = CCCCCC[C@H](N)C(=O)O; Phg = N[C@H](C(=O)O)c1ccccc1; Nle = CCCC[C@H](N)C(=O)O Where only a bound is given, the exact number is not on record here.

Consider “orexin A (QPLPDCCRQKTCSCRLYELLHGAGNHAAGILTL; ends and bridges not checked; cysteine pairing not given here; UniProt O43612 34-66, looked up) [orexin neuropeptide, also known as hypocretin-1]”, for which, in the test on mice, the cataplexy-like behavior result is given as “decreases” and the time spent awake entry is “increase”.

For `CCCCCC[C@H](NC(=O)[C@@H](NC(=O)[C@H](CC(C)C)NC(=O)[C@@H](NC(=O)CNC(=O)[C@@H](NC(=O)[C@H](C)NC(=O)[C@@H]1C[C@@H](O)CN1C(=O)[C@H](CC(N)=O)N(C)C(=O)CN(CCc1ccccc1)C(=O)[C@H](CCCNC(=N)N)NC(=O)[C@@H]1CCCN1C(=O)[C@H](CCCCNC(=N)N)NC(=O)[C@@H](CCC(N)=O)NC(=O)C(C)(C)C(=O)NCCc1cnc[nH]1)c1ccccc1)[C@@H](C)CC)[C@@H](C)O)C(N)=O` [compound 4] ({Malonyl(2,2-Me2,histaminyl)}-[dQ][hArg]PR[Gly(NCH2CH2Ph)][NMeN][Hyp]A[Phg]GILT[Aoc(2)]-NH2), the EC50 in test [1] was > 10 nM; in test [2], < 0.1 nM.

As for `CCCCCC[C@H](NC(=O)[C@@H](NC(=O)[C@H](CC(C)C)NC(=O)[C@@H](NC(=O)CNC(=O)[C@@H](NC(=O)[C@H](C)NC(=O)[C@@H]1C[C@@H](O)CN1C(=O)[C@H](CC(N)=O)NC(=O)CN(CCc1ccccc1)C(=O)[C@H](CCCNC(=N)N)NC(=O)[C@@H]1C[C@@H](O)CN1C(=O)[C@@H]1C[C@@H](O)CN1C(=O)[C@@H]1C[C@@H](O)CN1)c1ccccc1)[C@@H](C)CC)[C@@H](C)O)C(N)=O` [compound 9] (H-[Hyp][Hyp][Hyp]R[Gly(NCH2CH2Ph)]N[Hyp]A[Phg]GILT[Aoc(2)]-NH2), the EC50 was > 10 nM in test [1] (setting [3]) and < 0.1 nM in test [2] (setting [4]).

Turning to `CCCC[C@H](NC(=O)[C@@H](NC(=O)[C@H](CC(C)C)NC(=O)[C@@H](NC(=O)CNC(=O)[C@H](C)NC(=O)[C@H](C)NC(=O)[C@H](Cc1c[nH]cn1)NC(=O)[C@H](CC(N)=O)NC(=O)CNC(=O)[C@H](CO)NC(=O)[C@@H](C)NC(=O)[C@@H](Cc1ccccc1)NC(=O)[C@@H](CC(C)C)NC(=O)[C@@H](N)CC(C)C)[C@@H](C)CC)[C@@H](C)O)C(N)=O` [compound 14] (H-L[dL][dF][dA]SGNHAAGILT[Nle]-NH2), the EC50 was > 10 nM in test [1] (setting [3]) and < 0.1 nM in test [2] (setting [4]).

Take `CCCCCC[C@H](NC(=O)[C@@H](NC(=O)[C@H](CC(C)C)NC(=O)[C@@H](NC(=O)CNC(=O)[C@@H](NC(=O)[C@H](C)NC(=O)[C@@H]1C[C@@H](O)CN1C(=O)[C@H](CC(N)=O)N(C)C(=O)CN(CCc1ccccc1)C(=O)[C@H](CCCCN)NC(=O)[C@@H]1CCCN1C(=O)[C@H](CCCCNC(=N)N)NC(=O)[C@H](CCC(N)=O)NC(=O)C(C)(C)C(=O)NCCc1cnc[nH]1)c1ccccc1)[C@@H](C)CC)[C@@H](C)O)C(N)=O` [compound 8] ({Malonyl(2,2-Me2,histaminyl)}-Q[hArg]PK[Gly(NCH2CH2Ph)][NMeN][Hyp]A[Phg]GILT[Aoc(2)]-NH2): the EC50 in test [1] was > 10 nM; in test [2] it was < 0.1 nM.

As to `CCCCCC[C@H](NC(=O)[C@@H](NC(=O)[C@H](CC(C)C)NC(=O)[C@@H](NC(=O)CNC(=O)[C@@H](NC(=O)[C@H](C)NC(=O)[C@@H]1C[C@@H](O)CN1C(=O)[C@H](CC(N)=O)N(C)C(=O)CN(CCc1ccccc1)C(=O)[C@H](CCCNC(=N)N)NC(=O)[C@H](CCCNC(=N)N)NC(=O)[C@@H]1CCCN1C(=O)[C@H](CCCCNC(=N)N)NC(=O)[C@@H](CCC(N)=O)NC(=O)C(C)(C)C(=O)NCCc1cnc[nH]1)c1ccccc1)[C@@H](C)CC)[C@@H](C)O)C(N)=O` [compound 19] ({Malonyl(2,2-Me2,histaminyl)}-[dQ][hArg]PRR[Gly(NCH2CH2Ph)][NMeN][Hyp]A[Phg]GILT[Aoc(2)]-NH2), the EC50 is > 10 nM in test [1] and < 0.1 nM in test [2].

For `CCCCCC[C@H](NC(=O)[C@@H](NC(=O)[C@H](CC(C)C)NC(=O)[C@@H](NC(=O)CNC(=O)[C@@H](NC(=O)[C@H](C)NC(=O)[C@@H]1C[C@@H](O)CN1C(=O)[C@H](CC(N)=O)N(C)C(=O)CN(CCc1ccccc1)C(=O)[C@H](CCCNC(=N)N)NC(=O)[C@@H]1CCCN1C(=O)[C@H](CCCCNC(=N)N)NC(=O)[C@H](CCC(N)=O)NC(=O)C(C)(C)C(=O)NCCc1cnc[nH]1)c1ccccc1)[C@@H](C)CC)[C@@H](C)O)C(N)=O` [compound 3] ({Malonyl(2,2-Me2,histaminyl)}-Q[hArg]PR[Gly(NCH2CH2Ph)][NMeN][Hyp]A[Phg]GILT[Aoc(2)]-NH2), the EC50 in test [1] was > 10 nM; in test [2], < 0.1 nM.

Regarding `CCCC[C@H](NC(=O)[C@@H](NC(=O)[C@H](CC(C)C)NC(=O)[C@@H](NC(=O)CNC(=O)[C@@H](NC(=O)[C@H](C)NC(=O)[C@H](Cc1c[nH]cn1)NC(=O)[C@H](CC(N)=O)NC(=O)CNC(=O)[C@H](CO)NC(=O)[C@H](C)NC(=O)[C@H](Cc1c[nH]c2ccccc12)NC(=O)[C@@H](CC(C)C)NC(=O)[C@@H](N)Cc1ccccc1)c1ccccc1)[C@@H](C)CC)[C@@H](C)O)C(N)=O` [compound 10] (H-F[dL]WASGNHA[Phg]GILT[Nle]-NH2), the EC50 in test [1] (setting [3]) was > 10 nM; in test [2] (setting [4]), < 0.1 nM.

For the molecule `CCCC[C@H](NC(=O)[C@@H](NC(=O)[C@H](CC(C)C)NC(=O)[C@@H](NC(=O)CNC(=O)[C@H](C)NC(=O)[C@H](C)NC(=O)[C@H](Cc1c[nH]cn1)NC(=O)[C@H](CC(N)=O)NC(=O)CNC(=O)[C@H](CO)NC(=O)[C@@H](C)NC(=O)[C@@H](Cc1ccccc1)NC(=O)[C@H](CC(C)C)NC(=O)[C@@H](N)CC(C)C)[C@@H](C)CC)[C@@H](C)O)C(N)=O` [compound 12] (H-LL[dF][dA]SGNHAAGILT[Nle]-NH2), the EC50 is > 10 nM in test [1] (setting [3]) and < 0.1 nM in test [2] (setting [4]).
